According to PMC8758724, “Molecular mechanism of agonism and inverse agonism in ghrelin receptor” (Nature Communications, 2022):
No end group written: not given here. *: point of attachment. Octanoyl = CCCCCCCC(=O)*

Test system: ghrelin receptor mutants
Assay: IP1 accumulation, ghrelin receptor mutants, HEK293 cells, 37 °C 2 h (compound 21 containing 10 nM ghrelin)
Format: cell-based, human
Conditions: for ghrelin-induced activation, effect of mutation: peer review file
Text: Fig. 2 The binding mode of PF-05190457 with the ghrelin receptor. a The detailed binding mode of PF-05190457 in the orthosteric pocket of the ghrelin receptor. The |Fo| − |Fc| omit map (contoured at 3.0 σ) for PF-05190457 (shown as marine blue sticks). […] The diazaspiro core is shown in pink, arm-1 is sky blue, and arm-2 is light green. The red solid lines indicate hydrogen bonds involved in interactions with the side chains of key residues. d–f Key residues of the ghrelin receptor (wheat sticks) involved in ligand binding in cavity III (d), cavity I (e), and cavity IV (f). The binding pocket is highly hydrophobic, and the particular polar network is shown as black dotted lines. g IP1 accumulation induced by the inverse agonist PF-05190457 and antagonist compound 21. Bars represent the difference in the calculated potency (pIC50) of the inverse agonist for mutations relative to the WT ghrelin receptor. Data are colored according to extent of effect. nd not detected, **P < 0.01, ***P < 0.001 (one-way analysis of variance (ANOVA) followed by Dunnett’s test, compared with the response of WT, P < 0.001, P < 0.001, P < 0.001, P > 0.999, nd, nd, P = 0.05, nd, P < 0.001, P < 0.001, nd, nd, nd, nd, nd, nd, P < 0.01, P = 0.264, P < 0.001, nd, P < 0.001, nd from left to right). Data represent the mean ± SEM from n = 3 biologically independent experiments performed in triplicate. […] The salt bridges between E124^3.33 and R283^6.55 as well as between R102^2.63 and Q120^3.29, are broken upon PF-05190457 binding.
To measure the activity of inverse agonist PF-05190457 (Tocris, Cat. No. 6350), we carried out IP1 accumulation assays for ghrelin receptor independent of agonist. The agonist ghrelin and antagonist compound 21 were also performed as the control. The cDNA of ghrelin receptor subcloned into pcDNA3.1(+) expression vector with a HA signal sequence followed by a Flag tag at the N-terminus. Point mutations used in our study were generated by using Q5 site-Directed Mutagenesis kit (NEB). All the constructs were verified by sequencing. The constructs were expressed in HEK293 cells using PEI transfection reagent (YEASEN, 40815es03) according to the manufacturer’s instruction. Cells were harvested 48 h post transfection.
IP accumulation was measured using Cisbio IP1 assay kit (Cisbio, 62IPAPEB), which has been previously described. In brief, the harvested cells were distributed in a low volume 96-well dish and stimulated with increased concentration of inverse agonist PF-05190457, agonist ghrelin peptide or antagonist compound 21 containing 10 nM ghrelin peptide at 37 °C for 2 h. After that, d2-labeled IP1 and cryptate-labeled anti-IP1 monoclonal antibody dissolved in Lysis Buffer were added to the wells. After 1 h incubation at room temperature. IP1 was quantified using Synergy H1 microplate reader (BioTek) with excitation at 320 nm, emission at 620 nm, and 665 nm. The accumulation of IP1 was calculated according to a standard dose–response curve in GraphPad Prism 8 (GraphPad Software). Data were represented as the mean ± SEM from three independent experiments and all experiments were repeated at least three times.
Supplementary Fig. 6: IP1 accumulation assay.
(a) Expression level of the ghrelin receptor mutants. Data represent the mean ± SEM from three independent experiments performed in triplicate. ns, not significant, **p < 0.01, ***p < 0.001 (one-way analysis of variance [ANOVA] followed by Dunnett’s test, compared with the response […]
0.001, p=0.996, p=0.008, p=0.999 from left to right). Data represent the mean ± SEM from n=3 biologically independent experiments performed in triplicate.
(b) IP1 accumulation measurement induced by inverse agonist PF-05190457(left), agonist ghrelin (middle) and antagonist compound 21 (right). ns, not significant; nd, not detected; ***p < 0.001 […]
< 0.001, nd, nd, nd, p=0.264, nd, nd from left to right). Data represent the mean ± SEM from […]

ghrelin: endogenous agonist, 28-amino acid peptide with octanoyl modification at the side chain of Ser+3 (GSS(Octanoyl)FLSPEHQRVQQRKESKKPPAKLQPR; UniProt Q9UBU3 24-51, looked up)
ghrelin-induced activation, effect of mutation (D99^2.60 mutant): decreased potency of ghrelin induced activation
potency, effect of mutation (F279^6.51A): impaired the potency
potency, effect of mutation (F312^7.42A): impaired the potency
ghrelin-induced activation, effect of mutation (R102^2.63 mutant): decreased potency of ghrelin induced activation
potency, effect of mutation (W276^6.48A): impaired the potency
